# Measurements published in patent publication US20180344690A1, “Methods and Formulation for Enhancing Response to Radiotherapy” (The Board of Trustees of the Leland Stanford Junior …, priority 2017, published 2018).
# Like-named read-outs stand apart in the source and are kept apart here.
# Columns and labels:
# [1] = system: CML; conditions: cited from earlier work
# [2] = target: CXCR4 (Homo sapiens, UniProt P61073); conditions: cited from earlier work
# [3] = system: CD34+ stem cells; conditions: cited from earlier work
# [4] = system: human serum albumin and 1-acid glycoprotein; conditions: cited from earlier work
# [5] = system: MM; conditions: cited from earlier work
# [6] = system: AML and MDS; conditions: cited from earlier work
# [7] = system: CD34+ stem cells; conditions: cited from earlier work; remark: listed apart in the source
# [8] = system: U251 human GBM cells
# [9] = system: chronic lymphocytic leukemia (CLL); conditions: cited from earlier work
# [10] = clinical; conditions: human, in vivo
# Source text: (§1) Patients underwent dynamic susceptibility contrast perfusion MRI (DSC-MRI) for quantification of relative cerebral blood volume (rCBV) values by region-of-interest analysis.
# [11] = system: glioblastoma; experiment: clinical
# Source text: as §1
# [12] = system: peripheral blood (PB) CD34+ counts; conditions: cited from earlier work; for absolute CD34+ cell count (mean+/−SE): all patients
# [13] = system: AML; conditions: cited from earlier work
# [14] = cited from earlier work
# [15] = cited from earlier work; remark: listed apart in the source
# [16] = in vivo; conditions: human
# [17] = cited from earlier work; remark: listed apart in the source
# [18] = system: APL; conditions: cited from earlier work
# [19] = cited from earlier work; remark: listed apart in the source
# [20] = Preclinical animal toxicology studies; conditions: in vivo
# [21] = up to 320 μg/kg, healthy volunteers; cited from earlier work
# [22] = system: BCR-ABL(+) leukemia (CML); conditions: cited from earlier work
# [23] = system: glioblastoma
# Experimental: Normalized relative cerebral blood volume (rCBV) ratios were calculated by the mean rCBV within the 95% isodose radiation field one month post-radiation as compared to contralateral white matter outside of the radiation field.
# [24] = 23 evaluable patients, with bortezomib
# CXCR4, sequence (P61073 whole entry): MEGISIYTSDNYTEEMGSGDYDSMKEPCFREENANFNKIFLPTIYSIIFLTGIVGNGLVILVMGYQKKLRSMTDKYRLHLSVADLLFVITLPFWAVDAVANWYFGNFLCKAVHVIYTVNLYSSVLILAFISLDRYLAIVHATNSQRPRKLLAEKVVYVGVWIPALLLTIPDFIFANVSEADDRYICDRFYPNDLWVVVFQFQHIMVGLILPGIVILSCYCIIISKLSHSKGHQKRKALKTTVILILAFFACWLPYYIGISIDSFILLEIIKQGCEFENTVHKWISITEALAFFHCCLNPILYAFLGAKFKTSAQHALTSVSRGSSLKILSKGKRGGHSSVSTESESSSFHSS
compound,measurement,setting,value
c1cc(CN2CCCNCCNCCCNCC2)ccc1CN1CCCNCCNCCCNCC1 [Plerixafor],leukemia burden in mice,"[1]; added to nilotinib, vs nilotinib alone",significantly reduced
same,mobilization of leukemic cells,[1]; in vivo,mobilize leukemic cells in vivo
same,inhibition of the binding of SDF-1a (CXCL12) to CXCR4,[2],reversible inhibitor
same,proportion of patients with NHL able to mobilize minimum (2×10^6 cells/kg) and target (5×10^6 cells/kg) CD34+ cells,[3]; Plerixafor 240 μg/kg added to G-CSF,significantly increased the proportion of patients
same,apheresis days to reach both targets,[3]; Plerixafor added to G-CSF,significantly fewer apheresis days
same,protein binding,[4],extensively protein bound
same,MR,[5]; [24],13%
same,complete response (CR),[5]; [24],4%
same,overall response rate (including MR),[5]; [24],22%
same,progressive disease (PD) as best response,[5]; [24],13%
same,very good partial response (VGPR),[5]; [24],4%
same,"Dose limiting toxicities including insomnia, restlessness, and psychosis",[5]; dose level 6 (Plerixafor 400 μg/kg and bortezomib 1.3 mg/m^2),observed in two patients
same,de-adhesion of MM cells and accessory cells,[5]; in vivo,transient de-adhesion of MM cells and accessory cells in vivo in most of the patients
same,Grade 3 anemia,[5]; with bortezomib,10%
same,Grade 3 bone fracture due to myeloma bone disease,[5]; with bortezomib,10%
same,Grade 3 hypercalcemia,[5]; with bortezomib,10%
same,Grade 3 hyponatremia,[5]; with bortezomib,10%
same,Grade 3 hypophosphatemia,[5]; with bortezomib,20%
same,Grade 3 lymphopenia,[5]; with bortezomib,40%
same,grade 4 toxicities,[5]; with bortezomib,no grade 4 toxicities
same,tolerability of the combination,[5]; with bortezomib,well tolerated
same,early death due to complications from intracranial hemorrhage,[6]; 1 patient,4%
same,treatment failure due to persistent disease,[6]; 1 patient,4%
same,Grade I-II GVHD,[6]; 10/27 patients,37%
same,treatment failure due to relapsed disease,[6]; 10 patients,37%
same,patients with common grade 3 adverse events,"[6]; 24/27, neutropenic fever, infections, or rash",89%
same,Median progression-free survival (PFS),"[6]; all patients, 95% CI: 18.1-33.9 wks",26.6 wks
same,Grade III-IV GVHD,"[6]; human, in vivo, iv",no occurrences
same,toxicities ascribed to the G-CSF/Plerixafor component of the regimen,"[6]; human, in vivo",no toxicities ascribed
same,patients achieving a CR,[6]; of the 19 patients with active disease at study entry,18
same,"platelet recovery (plt >20 k/mm3), median",[6]; range 9-74 d,12 days
same,"neutrophil recovery (ANC >500/mm3), median",[6]; range 10-19,12.5 days
same,Median progression-free survival (PFS),"[6]; relapsed patients, 95% CI: 12.1-26.6 wks",15.7 wks
same,proportion of patients with MM able to mobilize the target (6×10^6 cells/kg) CD34+ cells,[7]; Plerixafor 240 μg/kg added to G-CSF compared with G-CSF alone,significantly increased the proportion of patients
same,apheresis days to reach target,[7]; Plerixafor added to G-CSF,significantly fewer apheresis days
same,blood flow to a tumor,"[8]; after 40 days, radiotherapy and Plerixafor compared to radiotherapy alone (FIG. 5A)",lower blood flow
same,tumor size,"[8]; over 80 days, radiation and Plerixafor (continuous infusion) compared to other treatment groups (FIG. 5B, 5C)",reduced tumor size
same,mobilization of CLL cells,"[9]; 80, 160, 240, 320 μg/kg, preliminary results",mobilized to the peripheral blood in a dose-dependent fashion
same,tolerability of the combination of Plerixafor and rituximab,[9]; CLL patients with WBC <50×109/L,well tolerated
same,dose limiting toxicities,[9]; with rituximab,no dose limiting toxicities were reported
same,most common adverse events,[9]; with rituximab,"nausea, fatigue, chills, and diarrhea"
same,remissions,[9]; with rituximab,partial remissions were seen in a proportion of patients
same,concentration at 7 days,[10],≥ 100 ng/mL
same,rCBV in the tumor bed compared to the postoperative pre-RT scan,"[11]; DSC-MRI at 1 and 6 months post-RT, P<0.02, one way ANOVA",lower rCBV
same,patients alive,[11]; currently,7 of 9
same,dose limiting toxicities (DLTs),"[11]; human, in vivo",no DLTs observed
same,longest survival since diagnosis,"[11]; human, in vivo",18 months
same,recommended phase II dose,"[11]; human, in vivo, iv, 4 weeks",16.6 µg/kg/h
same,total white blood cell (WBC) and peripheral blood (PB) CD34+ counts,[12]; 4 and 6 hours following a single injection,rapid and statistically significant increase
same,absolute CD34+ cell count (mean+/−SE),"[12]; 4 hours after injection, baseline 2.6+/−0.7/μL, P=0.002",15.6 ± 3.9 µL⁻¹
same,absolute CD34+ cell count,"[12]; 4 hours, 160 μg/kg group",11.3 ± 2.7 µL⁻¹
same,absolute CD34+ cell count,"[12]; 4 hours, 240 μg/kg group",19.3 ± 6.9 µL⁻¹
same,absolute CD34+ cell count (mean+/−SE),"[12]; 6 hours after injection, P=0.003",16.2 ± 4.3 µL⁻¹
same,absolute CD34+ cell count,"[12]; 6 hours, 160 μg/kg group",11.3 ± 2.5 µL⁻¹
same,absolute CD34+ cell count,"[12]; 6 hours, 240 μg/kg group",20.4 ± 7.6 µL⁻¹
same,toxicities,[12]; single injection 160 or 240 μg/kg,only grade 1 toxicities were observed
same,Plerixafor unrelated deaths,"[13]; 4 patients, 240 μg/kg",17%
same,complete response (CR),[13]; 14 of 21 patients with available data,67%
same,DLTs,"[13]; 240, 320, 400, 480 μg/kg IV",No DLTs have been reported
same,patients with adverse events at least possibly related to Plerixafor,[13]; Eighteen patients,86%
same,patients with Grade 3 Plerixafor-related AEs,[13]; Four patients,19%
same,patients with Grade 4 related AEs,"[13]; One patient, 480 μg/kg cohort, thrombocytopenia and asymptomatic pulmonary embolism",5%
same,time of peak PB AML blasts,"[13]; day 2, after administration",2 to 4 h
same,"increase in PB AML blasts, mean",[13]; day 7,1.51 fold
same,median time to neutrophil (0.5×109/L) recovery for responders,[13]; in vivo,19.5 (range 13-35) days
same,median time to platelet (100×109/L) recovery for responders,[13]; in vivo,21 (range 17-37) days
same,"rise in PB AML blasts, mean increase",[13]; infusion on day 2,3.01 fold
same,severity of the majority of related adverse events,[13]; mainly gastrointestinal disorders,grade ½
same,Sinus tachycardia (all Grade 1),[14]; 400 and 480 μg/kg doses,observed in most subjects
same,maximum tolerated dose,[14]; doses of up to 480 μg/kg SC and IV in healthy volunteers and cancer patients,has not been established
same,common adverse events,[14]; doses up to 480 μg/kg,"diarrhea, injection site erythema, perioral numbness, sinus tachycardia, headache, nausea, abdominal distention and injection site pain"
same,circulating neutrophils,"days 4, 8, 15, 22, 29 during infusion vs Screening (FIG. 8A)",increase of neutrophils
same,circulating monocytes,"days 4, 8, 15, 22, 29 during infusion vs Screening (FIG. 8B)",increase in monocytes
same,MTD,"[15]; animals, adverse neurologic effects",approximately 70 mg/m^2
same,dose limiting toxicities (DLTs),"[15]; including severe dyspnea, tremors, ventral recumbency, convulsions at higher dosages",primarily adverse neurologic events
same,MTD,[16],~1.8 mg/kg
same,Cmax and AUC0-∞ across the four dose levels,"[17]; 10, 20, 40, 80 μg/kg",dose proportionality
same,Cmax,"[17]; IV, 40 μg/kg",292.8±67.0
same,Cmax,"[17]; IV, 80 μg/kg",503.9±29.6
same,Cmax,"[17]; SC, 40 μg/kg",123.5±27.9
same,Cmax,"[17]; SC, 80 μg/kg",238.3±17.3
same,terminal elimination half-life,"[17]; following a single dose, bi-exponential elimination from plasma",3.5 to 5 h
same,time of peak plasma levels,[17]; following subcutaneous administration,0.5 to 1 h
same,bioavailability,"[17]; human, in vivo",80-90%
same,anti-tumor effect of Plerixafor alone,[18]; in these experiments (leukemia models),no detectable anti-tumor effect
same,median overall survival,"[18]; untreated control 18 days, cytarabine vs cytarabine+Plerixafor p<0.0006",19 days
same,adverse events that occurred more frequently with Plerixafor than placebo,[19]; G-CSF plus Plerixafor 240 μg/kg SC,"insomnia, headache, dizziness, diarrhea, nausea, flatulence, abdominal pain, vomiting, abdominal distention, dry mouth, stomach discomfort, constipation, dyspepsia, hypoaesthesia oral, arthralgia, musculoskeletal pain, hyperhidrosis, erythema, injection site reactions, fatigue, and malaise"
same,tolerability,"[19]; Plerixafor 240 μg/kg in conjunction with G-CSF, NHL or MM",well-tolerated
same,PMN and PLT engraftment of mobilized hematopoietic stem cells,"[19]; Plerixafor and G-CSF compared to G-CSF alone, both trials",equally capable of prompt and durable PMN and PLT engraftment
same,approximate human equivalent dose of early adverse neurologic effects,[20],470-940 μg/kg
same,pharmacokinetics over the tested dose range,[21],linear pharmacokinetics
same,sensitivity to the tyrosine kinase inhibitors Imatinib and Nilotinib,[22],confer added sensitivity
same,tumor cell chemotaxis,[22],inhibit tumor cell chemotaxis
same,rate of out of field recurrence,"[23]; as of Feb. 7, 2017, expected 20%, p<0.03, Fisher's exact test",77%
same,rCBV measured by DSC-MRI within the 95% isodose field,"[23]; one month after radiation therapy, patients receiving Plerixafor compared to control, p<0.02",significant reduction
same,rCBV out of the radiation field,"[23]; one-month post radiation therapy, Plerixafor compared to control patients",similar
